According to patent publication US20260216180A1, “QUINOLINE DERIVATIVE COMPOUNDS OR PHARMACEUTICALLY ACCEPTABLE SALT THEREOF, PREPARATION METHOD THEREFOR AND USE THEREOF” (JIANGSU CAREPHAR PHARMACEUTICAL CO.,LTD., priority 2023, published 2026):

Columns and labels:
Assay type in all cases: cell-based
miR-124 = test: Regulation of miR-124 expression in a PBMC in vitro model (qPCR); conditions: 5 μM test compound, 24 h, human PBMC stimulated with PHA-L and IL-2; miR-191 internal reference; read-out: Relative expression of miR-124, fold change compared with DMSO-treated cells
Protocol: Pharmacological Activity Test: Regulation of miR-124 Expression by the Quinoline Derivatives in a PBMC In Vitro Model
• a. human PBMC cells • b. PHA-L • c. IL-2 • d. mirVana™ miRNA Extraction kit • e. TaqMan Advanced miRNA cDNA Synthesis Kit • f. TaqMan Fast Gene Expression Master Mix • g. TaqMan Advanced miRNA Assay (mir191) • h. TaqMan Advanced miRNA Assay (mir124)
Human PBMC cells were resuscitated. The cell suspension was transferred to a 75 cm^2 culture flask containing 13 mL of culture medium. The cells were cultured overnight in a 37° C., 5% CO2 incubator. The cell suspension was then collected in a conical flask, centrifuged at 1200 rpm for 5 minutes, and the supernatant was discarded. The cells were resuspended in 1 mL of fresh culture medium, and then the cell clumps were gently blown apart and inoculated into a 6-well plate at a density of 4*10^6 cells/mL. 5 μg/mL PHA-L and 10 ng/mL IL-2 were added to each well. The cells were incubated in the incubator for 48 hours. 5 μM of the test compound was added to each well of a 6-well plate, and 0.1% DMSO was added to the blank control wells, and the plate was incubated at 37° C. for 24 h. Cells were collected, Total RNA was isolated and extracted according to the procedure of the mirVana™ miRNA Extraction Kit, and cDNA was prepared according to the procedure of the TaqMan Advanced miRNA cDNA Synthesis Kit. MiR-191 was used as the internal reference gene for qPCR test.
That is, RNA sample→poly (A) tailing reaction→adapter reaction→reverse transcription (RT) reaction→miR-amplification reaction→qPCR test.
The qPCR procedure includes: 50° C. 2 min; 95° C. 20 s; 95° C. 1 s, a 60° C. 20 s, 40 cycles.
The relative gene expression was calculated using the following formula: ΔCt=Ct (miR-124)−Ct (miR-191)
Relative miRNA expression=2^−ΔCt.

TNF-α = test: Macrophage TNF-α secretion after LPS (ELISA); conditions: Bone marrow macrophage, compared to 0 μM, mouse bone marrow macrophages, 200 ng/ml LPS, 6 hours, read-out: Inhibition rate of TNFα at 10 μM concentration
Protocol: (§1) Pharmacological Activity Test: Regulatory Effect of Quinoline Derivatives on Macrophage IL-6 and TNF-α Secretion
(§2) Mouse bone marrow cells were isolated from the femur and tibia bone marrow of […] mice of 6-8 week old raised under SPF conditions and inoculated in 6-well plates at a density of 1.5*10^6 cells/well/2 mL. 50 ng/mL M-CSF was added to each well and the cells were cultured in a CO2 incubator for 3 days. On the third day, the culture medium was replaced with fresh medium containing 100 ng/mL M-CSF and the culture was continued for 3 days. On the 6th day, the supernatant was removed and the cells were washed once with DPBS. After adding 1 mL of DPBS, the macrophages were harvested using a cell scraper, centrifuged at 400 g for 10 min, and the supernatant was discarded. The cells were resuspended in fresh culture medium containing 50 ng/mL M-CSF, inoculated in a 96-well plate at a density of 2*10^4 cells/well/200 μL, and cultured in a CO2 incubator overnight. 0, 3, 5, […] of the test compound were added to each well (wherein well 0 contains 0.1% DMSO) respectively and incubate in a CO2 incubator for 1 hour. Then 200 ng/ml LPS was added and the cell supernatant was collected after 6 hours of co-culture. ELISA kits were used to detect the secretion levels of IL-6 and TNF-α.

IL-6 = test: Macrophage IL-6 secretion after LPS (ELISA); conditions: Bone marrow macrophage, compared to 0 μM, mouse bone marrow macrophages, 200 ng/ml LPS, 6 hours, read-out: Inhibition rate of IL-6 at 10 μM concentration
Protocol: as §1, §2

## FC(F)C1(c2ccc(Nc3ccc4cccc(Cl)c4n3)cc2)CC1 [Compound 1, 8-chloro-N-(4-(1-(difluoromethyl)cyclopropyl)phenyl)quinolin-2-amine]
miR-124
  fold induction at 5 µM: 1.5
TNF-α
  inhibition at 10 µM: 85%
IL-6
  inhibition at 10 µM: 81%

## FC(F)(F)C1(c2ccc(Nc3ccc4cccc(Cl)c4n3)nc2)CC1 [Compound 2, 8-chloro-N-(5-(1-(trifluoromethyl)cyclopropyl)pyridin-2-yl)quinolin-2-amine]
miR-124
  fold induction at 5 µM: 8.35

## CC(C)(c1ccc(Nc2ccc3cccc(Cl)c3n2)cc1)C(F)(F)F [Compound 3, 8-chloro-N-(4-(1,1,1-trifluoro-2-methylprop-2-yl)phenyl)quinolin-2-amine]
miR-124
  fold induction at 5 µM: 7.33

## FC(F)(F)C1(c2ccc(Nc3ccc4cccc(Cl)c4n3)cc2)CC1 [Compound 4, 8-chloro-N-(4-(1-(trifluoromethyl)cyclopropyl)phenyl)quinolin-2-amine]
miR-124
  fold induction at 5 µM: 15.9
TNF-α
  inhibition at 10 µM: 84%
IL-6
  inhibition at 10 µM: 85%

## FC(F)(F)C1(c2ccnc(Nc3ccc4cccc(Cl)c4n3)c2)CC1 [Compound 6, 8-chloro-N-(4-(1-(trifluoromethyl)cyclopropyl)pyridin-2-yl)quinolin-2-amine]
miR-124
  fold induction at 5 µM: 7.28

## FC(F)(F)C1(c2ccc(Nc3ccc4cccc(Cl)c4n3)cn2)CC1 [Compound 7, 8-chloro-N-(6-(1-(trifluoromethyl)cyclopropyl)pyridine-3-yl)quinolin-2-amine]
miR-124
  fold induction at 5 µM: 1.8

## COc1cc(C2(C(F)(F)F)CC2)ccc1Nc1ccc2cccc(Cl)c2n1 [Compound 8, 8-chloro-N-(2-methoxy-4-(1-(trifluoromethyl)cyclopropyl)phenyl)quinolin-2-amine]
miR-124
  fold induction at 5 µM: 6

## FC(F)(F)C1(c2cccc(Nc3ccc4cccc(Cl)c4n3)c2)CC1 [Compound 9, 8-chloro-N-(3-(1-(trifluoromethyl)cyclopropyl)phenyl)quinolin-2-amine]
miR-124
  fold induction at 5 µM: 4.24

## Fc1cc(Cl)c2nc(Nc3ccc(C4(C(F)(F)F)CC4)cn3)ccc2c1 [Compound 10, 8-chloro-6-fluoro-N-(5-(1-(trifluoromethyl)cyclopropyl)pyridin-2-yl)quinolin-2-amine]
miR-124
  fold induction at 5 µM: 6.9

## Cc1cc(Nc2ccc3cccc(Cl)c3n2)ncc1C1(C(F)(F)F)CC1 [Compound 13, 8-chloro-N-(4-methyl-5-(1-(trifluoromethyl)cyclopropyl)pyridin-2-yl)quinolin-2-amine]
miR-124
  fold induction at 5 µM: 5.9

## FC(F)(F)C1(c2cnc(Nc3ccc4cccc(Cl)c4n3)cn2)CC1 [Compound 14, 8-chloro-N-(5-(1-(trifluoromethyl)cyclopropyl)Pyrazin-2-yl)quinolin-2-amine]
miR-124
  fold induction at 5 µM: 8.1

## Fc1cc(Nc2ccc3cccc(Cl)c3n2)ncc1C1(C(F)(F)F)CC1 [Compound 15, 8-chloro-N-(4-fluoro-5-(1-(trifluoromethyl)cyclopropyl)pyridin-2-yl)quinolin-2-amine]
miR-124
  fold induction at 5 µM: 1.99

## Fc1cc(Cl)c2nc(Nc3cc(C4(C(F)(F)F)CC4)ccn3)ccc2c1 [Compound 17, 8-chloro-6-fluoro-N-(4-(1-(trifluoromethyl)cyclopropyl)pyridin-2-yl)quinolin-2-amine]
miR-124
  fold induction at 5 µM: 56.4

## N#Cc1cc(Cl)c2nc(Nc3ccc(C4(C(F)(F)F)CC4)cn3)ccc2c1 [Compound 19, 8-chloro-2-((5-(1-(trifluoromethyl)cyclopropyl)pyridin-2-yl)amino)quinolin-6-nitrile]
miR-124
  fold induction at 5 µM: 118

## N#Cc1cc(Cl)c2nc(Nc3ccc(C4(C(F)(F)F)CC4)cc3)ccc2c1 [Compound 20, 8-chloro-2-((4-(1-(trifluoromethyl)cyclopropyl)phenyl)amino)quinolin-6-carbonitrile]
miR-124
  fold induction at 5 µM: 15.2

## CS(=O)(=O)c1cc(Cl)c2nc(Nc3ccc(C4(C(F)(F)F)CC4)cc3)ccc2c1 [Compound 21]
miR-124
  fold induction at 5 µM: 21.2

## CC(C)(c1ccc(Nc2ccc3cccc(Cl)c3n2)cc1)C(F)F [Compound 22, 8-chloro-N-(4-(1,1-difluoro-2-methylpropan-2-yl)phenyl)quinolin-2-amine]
miR-124
  fold induction at 5 µM: 1.96

## FC(F)(F)C1(c2cnc(Nc3ccc4cccc(Cl)c4n3)nc2)CC1 [Compound 24, 8-chloro-N-(5-(1-(trifluoromethyl)cyclopropyl)pyrimidin-2-yl)quinolin-2-amine]
miR-124
  fold induction at 5 µM: 1.99
